In US12404279B2, “Deubiquitinase inhibitors and methods of use thereof” (Molecure S.A., priority 2021, dated 2025) one finds IC50 and inhibition data, which are given here for 22 compounds.

Where a name gives a salt, the structure may show the parent alone.

Chain of full-length USP7 (Q93009 whole entry): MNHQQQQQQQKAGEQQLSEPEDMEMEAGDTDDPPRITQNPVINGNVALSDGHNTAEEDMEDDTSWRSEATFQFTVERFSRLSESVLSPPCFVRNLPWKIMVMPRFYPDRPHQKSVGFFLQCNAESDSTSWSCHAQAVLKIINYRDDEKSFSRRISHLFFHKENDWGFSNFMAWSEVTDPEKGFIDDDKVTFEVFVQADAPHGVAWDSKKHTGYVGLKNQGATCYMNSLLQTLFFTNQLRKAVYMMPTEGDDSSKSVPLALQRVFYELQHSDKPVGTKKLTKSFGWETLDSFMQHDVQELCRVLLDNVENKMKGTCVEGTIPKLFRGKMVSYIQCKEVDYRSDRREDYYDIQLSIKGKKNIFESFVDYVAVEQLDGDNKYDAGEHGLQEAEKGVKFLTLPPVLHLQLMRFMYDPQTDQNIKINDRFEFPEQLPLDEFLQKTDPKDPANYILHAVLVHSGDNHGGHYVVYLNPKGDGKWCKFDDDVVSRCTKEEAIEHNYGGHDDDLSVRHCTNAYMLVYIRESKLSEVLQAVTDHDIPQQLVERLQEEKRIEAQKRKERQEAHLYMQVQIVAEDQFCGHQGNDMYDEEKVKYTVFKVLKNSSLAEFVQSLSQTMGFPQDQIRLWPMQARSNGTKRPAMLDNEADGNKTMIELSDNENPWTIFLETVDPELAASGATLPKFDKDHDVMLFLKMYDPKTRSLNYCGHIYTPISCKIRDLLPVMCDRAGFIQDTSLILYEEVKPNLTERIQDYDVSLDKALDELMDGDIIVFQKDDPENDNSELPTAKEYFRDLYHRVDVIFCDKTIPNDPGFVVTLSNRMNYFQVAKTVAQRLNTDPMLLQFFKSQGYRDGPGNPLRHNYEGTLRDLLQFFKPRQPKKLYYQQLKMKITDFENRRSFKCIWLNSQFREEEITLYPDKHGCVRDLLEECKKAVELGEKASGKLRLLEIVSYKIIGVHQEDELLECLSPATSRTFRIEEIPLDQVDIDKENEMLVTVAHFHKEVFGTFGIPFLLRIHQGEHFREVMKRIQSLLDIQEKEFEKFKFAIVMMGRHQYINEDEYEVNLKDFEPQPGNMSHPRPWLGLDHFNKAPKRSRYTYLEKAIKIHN

One assay addresses full-length USP7 (Homo sapiens (Human), UniProt Q93009). As to the kind of experiment: Enzymatic assay to determine IC50 of USP7 inhibitors (Ubiquitin-Rhodamine 110 cleavage). The class given is biochemical. To be noted: 0.5 nM USP7, 0.5 μM Ubiquitin-Rhodamine 110, 45 min at 37° C. Here is the method:
For the inhibitors disclosed herein, their potency was measured using the following method.
A 45 μl reaction volume containing full-length USP7 (0.5 nM) in 50 mM HEPES pH 7.5, 150 mM NaCl, 1 mM DTT, 1 mg/ml BSA and 0.05% Tween20 was assembled in wells of 96 well half area black flat bottom plates. Test compounds were first dissolved to 25 mM stocks in DMSO and subsequently introduced to enzyme 15 min after USP7 incubation with DTT at room temperature. The enzymatic reaction was started by adding 0.5 μM Ubiquitin-Rhodamine 110 (final concentration) and allowed to proceed for 45 min at 37° C., 250 RPM shaking before Rhodamine fluorescence (485 nm excitation/520 nm emission) was measured using Tecan Spark M10 plate reader.
As for `Cc1cc(Cl)cc(-c2ccnc3sccc23)c1O[C@H]1CCCNC1` [Example 31, (S)-4-(5-chloro-3-methyl-2-(piperidin-3-yloxy)phenyl)thieno[2,3-b]pyridine 2,2,2-trifluoroacetate], the IC50 lay in the range of 1000 to 10000 nM.
The same measure, in the same setting: in the case of `Cc1cc(Cl)cc(-c2ccnc3cc(CN4C(=O)C5C(C4=O)C5(C)C)sc23)c1NC(=O)[C@H]1CCNC1` (stereo partly drawn) [Example 34, (3S)—N-(4-chloro-2-(2-((6,6-dimethyl-2,4-dioxo-3-azabicyclo[3.1.0]hexan-3-yl)methyl)thieno[3,2-b]pyridin-7-yl)-6-methylphenyl)pyrrolidine-3-carboxamide 2,2,2-trifluoroacetate] it was below 500 nM; in that of `Cc1cc(C#N)nc(-c2ccnc3cc(CN4C(=O)C5C(C4=O)C5(C)C)sc23)c1C(=O)N1CC[C@H](N(C)C)C1` (stereo partly drawn) [Example 44, 6-(2-((6,6-dimethyl-2,4-dioxo-3-azabicyclo[3.1.0]hexan-3-yl)methyl)thieno[3,2-b]pyridin-7-yl)-5-((S)-3-(dimethylamino)pyrrolidine-1-carbonyl)-4-methylpicolinonitrile hydrochloride], 1000 to 10000 nM; in that of `Cc1cc(C#N)nc(-c2ccnc3cc(CN4C(=O)C5C(C4=O)C5(C)C)sc23)c1C(=O)N1CC(F)(F)C1` (stereo not shown) [Example 51, 5-(3,3-difluoroazetidine-1-carbonyl)-6-(2-((6,6-dimethyl-2,4-dioxo-3-azabicyclo[3.1.0]hexan-3-yl)methyl)thieno[3,2-b]pyridin-7-yl)-4-methylpicolinonitrile hydrochloride], below 500 nM.
Compound `Cc1cc(C#N)nc(-c2ccnc3cc(CN4C(=O)C5C(C4=O)C5(C)C)sc23)c1C(=O)N1CCN(C)C[C@@H]1C` (stereo partly drawn) [Example 52, 6-(2-((6,6-dimethyl-2,4-dioxo-3-azabicyclo[3.1.0]hexan-3-yl)methyl)thieno[3,2-b]pyridin-7-yl)-5-((S)-2,4-dimethylpiperazine-1-carbonyl)-4-methylpicolinonitrile dihydrochloride] returned a half-maximal inhibitory concentration (IC50) below 500 nM.
The compound `Cc1cc(C#N)nc(-c2ccnc3cc(CN4C(=O)C5C(C4=O)C5(C)C)sc23)c1C(=O)N1CCNC(C)(C)C1` (stereo not shown) [Example 53, 6-(2-((6,6-dimethyl-2,4-dioxo-3-azabicyclo[3.1.0]hexan-3-yl)methyl)thieno[3,2-b]pyridin-7-yl)-5-(3,3-dimethylpiperazine-1-carbonyl)-4-methylpicolinonitrile hydrochloride] yielded a half-maximal inhibitory concentration (IC50) of 1000 to 10000 nM.
Compound `Cc1cc(C#N)nc(-c2ccnc3cc(CN4C(=O)C5C(C4=O)C5(C)C)sc23)c1C(=O)N1CCNC[C@H]1C` (stereo partly drawn) [Example 54, 6-(2-((6,6-dimethyl-2,4-dioxo-3-azabicyclo[3.1.0]hexan-3-yl)methyl)thieno[3,2-b]pyridin-7-yl)-4-methyl-5-((R)-2-methylpiperazine-1-carbonyl)picolinonitrile hydrochloride] showed an IC50 of 500 to 1000 nM.

Still in this assay, the particulars now being: at 1 μM of the test compound; given where IC50 not determined yet; read-out: percent value of inhibition of USP7 activity.
`Cc1cc(C(F)(F)F)nc(-c2ccnc3cc(CN4C(=O)C5C(C4=O)C5(C)C)sc23)c1Cn1cncn1` (stereo not shown) [Example 36, 3-((7-(3-((1H-1,2,4-triazol-1-yl)methyl)-4-methyl-6-(trifluoromethyl)pyridin-2-yl)thieno[3,2-b]pyridin-2-yl)methyl)-6,6-dimethyl-3-azabicyclo[3.1.0]hexane-2,4-dione hydrochloride]: the inhibition at 1 µM is below 20%.
In the case of `Cc1cc(C(F)(F)F)nc(-c2ccnc3cc(CN4C(=O)C5C(C4=O)C5(C)C)sc23)c1CC1NC(=O)CNC1=O` (stereo not shown) [Example 37, 3-((7-(3-((3,6-dioxopiperazin-2-yl)methyl)-4-methyl-6-(trifluoromethyl)pyridin-2-yl)thieno[3,2-b]pyridin-2-yl)methyl)-6,6-dimethyl-3-azabicyclo[3.1.0]hexane-2,4-dione hydrochloride], the inhibition at 1 µM was below 20%.
Turning to `Cc1cc(C(F)(F)F)nc(-c2ccnc3cc(CN4C(=O)C5C(C4=O)C5(C)C)sc23)c1CN1CCOCC1=O` (stereo not shown) [Example 38, 6,6-dimethyl-3-((7-(4-methyl-3-((3-oxomorpholino)methyl)-6-(trifluoromethyl)pyridin-2-yl)thieno[3,2-b]pyridin-2-yl)methyl)-3-azabicyclo[3.1.0]hexane-2,4-dione hydrochloride], the inhibition at 1 µM is below 20%.
As for `Cc1cc(C(F)(F)F)nc(-c2ccnc3cc(CN4C(=O)C5C(C4=O)C5(C)C)sc23)c1CN1CCCC1=O` (stereo not shown) [Example 39, 6,6-dimethyl-3-((7-(4-methyl-3-((2-oxopyrrolidin-1-yl)methyl)-6-(trifluoromethyl)pyridin-2-yl)thieno[3,2-b]pyridin-2-yl)methyl)-3-azabicyclo[3.1.0]hexane-2,4-dione dihydrochloride], the inhibition at 1 µM fell in the range of 20 to 49%.
Consider `Cc1cc(C(F)(F)F)nc(-c2ccnc3cc(CN4C(=O)C5C(C4=O)C5(C)C)sc23)c1CN1CCNCC1=O` (stereo not shown) [Example 40, 6,6-dimethyl-3-((7-(4-methyl-3-((2-oxopiperazin-1-yl)methyl)-6-(trifluoromethyl)pyridin-2-yl)thieno[3,2-b]pyridin-2-yl)methyl)-3-azabicyclo[3.1.0]hexane-2,4-dione dihydrochloride], for which the inhibition at 1 µM was 20 to 49%.
For `Cc1cc(C(F)(F)F)nc(-c2ccnc3cc(CN4C(=O)C5C(C4=O)C5(C)C)sc23)c1CN1CCN(C)CC1=O` (stereo not shown) [Example 41, 6,6-dimethyl-3-((7-(4-methyl-3-((4-methyl-2-oxopiperazin-1-yl)methyl)-6-(trifluoromethyl)pyridin-2-yl)thieno[3,2-b]pyridin-2-yl)methyl)-3-azabicyclo[3.1.0]hexane-2,4-dione dihydrochloride], the inhibition at 1 µM was below 20%.
Turning to `Cc1cc(C#N)nc(-c2ccnc3cc(CN4C(=O)C5C(C4=O)C5(C)C)sc23)c1C(=O)N(C)CCN(C)C` (stereo not shown) [Example 42, 6-cyano-2-(2-((6,6-dimethyl-2,4-dioxo-3-azabicyclo[3.1.0]hexan-3-yl)methyl)thieno[3,2-b]pyridin-7-yl)-N-(2-(dimethylamino)ethyl)-N,4-dimethylnicotinamide], the inhibition at 1 µM is below 20%.
Turning to `Cc1cc(C#N)nc(-c2ccnc3cc(CN4C(=O)C5C(C4=O)C5(C)C)sc23)c1C(=O)N1CC(N(C)C)C1` (stereo not shown) [Example 43, 6-(2-((6,6-dimethyl-2,4-dioxo-3-azabicyclo[3.1.0]hexan-3-yl)methyl)thieno[3,2-b]pyridin-7-yl)-5-(3-(dimethylamino)azetidine-1-carbonyl)-4-methylpicolinonitrile], the inhibition at 1 µM lay within 50 to 70%.
For `Cc1ccnc(-c2ccnc3cc(CN4C(=O)C5C(C4=O)C5(C)C)sc23)c1C(=O)N1CCNCC1` (stereo not shown) [Example 45, 6,6-dimethyl-3-((7-(4-methyl-3-(piperazine-1-carbonyl)pyridin-2-yl)thieno[3,2-b]pyridin-2-yl)methyl)-3-azabicyclo[3.1.0]hexane-2,4-dione hydrochloride], the inhibition at 1 µM is below 20%.
Same read-out and setting: as for `Cc1ccnc(-c2ccnc3cc(CN4C(=O)C5C(C4=O)C5(C)C)sc23)c1CN1CCNCC1` (stereo not shown) [Example 46, 6,6-dimethyl-3-((7-(4-methyl-3-(piperazin-1-ylmethyl)pyridin-2-yl)thieno[3,2-b]pyridin-2-yl)methyl)-3-azabicyclo[3.1.0]hexane-2,4-dione hydrochloride], the figure is below 20%.
For the compound `Cc1ccnc(-c2ccnc3cc(CN4C(=O)C5C(C4=O)C5(C)C)sc23)c1C(=O)N1CCOCC1` (stereo not shown) [Example 48, 6,6-dimethyl-3-((7-(4-methyl-3-(morpholine-4-carbonyl)pyridin-2-yl)thieno[3,2-b]pyridin-2-yl)methyl)-3-azabicyclo[3.1.0]hexane-2,4-dione hydrochloride], the inhibition at 1 µM is below 20%.
Turning to `Cc1ccnc(-c2ccnc3cc(CN4C(=O)C5C(C4=O)C5(C)C)sc23)c1C(=O)N1CCC(F)(F)C1` (stereo not shown) [Example 49, 3-((7-(3-(3,3-difluoropyrrolidine-1-carbonyl)-4-methylpyridin-2-yl)thieno[3,2-b]pyridin-2-yl)methyl)-6,6-dimethyl-3-azabicyclo[3.1.0]hexane-2,4-dione hydrochloride], the inhibition at 1 µM is below 20%.
On the same count and under the same terms, in the case of `Cc1ccnc(-c2ccnc3cc(CN4C(=O)C5C(C4=O)C5(C)C)sc23)c1C(=O)N1CC(F)(F)C1` (stereo not shown) [Example 50, 3-((7-(3-(3,3-difluoroazetidine-1-carbonyl)-4-methylpyridin-2-yl)thieno[3,2-b]pyridin-2-yl)methyl)-6,6-dimethyl-3-azabicyclo[3.1.0]hexane-2,4-dione hydrochloride] it was below 20%.

The same assay, now with this note: read-out: percent value of inhibition of USP7 activity.
Take `Cc1nc(C(F)(F)F)cc(-c2ccnc3cc(CN4C(=O)C5C(C4=O)C5(C)C)sc23)c1NC(=O)CN1CC(F)(F)C1` (stereo not shown) [Example 32, 2-(3,3-difluoroazetidin-1-yl)-N-(4-(2-((6,6-dimethyl-2,4-dioxo-3-azabicyclo[3.1.0]hexan-3-yl)methyl)thieno[3,2-b]pyridin-7-yl)-2-methyl-6-(trifluoromethyl)pyridin-3-yl)acetamide 2,2,2-trifluoroacetate]: the inhibition at 1 µM is below 20%.
On the same count and under the same terms, as for `CCc1nc(C(F)(F)F)cc(-c2ccnc3cc(CN4C(=O)C5C(C4=O)C5(C)C)sc23)c1NC(=O)C1CCNCC1` (stereo not shown) [Example 33, N-(4-(2-((6,6-dimethyl-2,4-dioxo-3-azabicyclo[3.1.0]hexan-3-yl)methyl)thieno[3,2-b]pyridin-7-yl)-2-ethyl-6-(trifluoromethyl)pyridin-3-yl)piperidine-4-carboxamide 2,2,2-trifluoroacetate], the figure is below 20%.
